Consider 30 compounds from patent US12139499B2, “Heteroaryl compounds for treating Huntington's disease” (PTC THERAPEUTICS, INC., priority 2018, dated 2024).

The subject of the test is Endogenous Huntingtin Protein. Nature of the test: Endogenous Huntingtin Protein Assay (ELISA-based MSD electrochemiluminescence). The test is classed as cell-based. The note with it: Table 1. The method, then:
Compounds of Formula (I) or Formula (II) were tested using the Meso Scale Discovery (MSD) Assay provided in International Application No. PCT/US2016/066042, filed on Dec. 11, 2016 and claiming priority to U.S. Provisional Application 62/265,652 filed on Dec. 10, 2015, the entire contents of which are incorporated herein by reference.
The Endogenous Huntingtin Protein assay used in Example 1 was developed using the ELISA-based MSD electrochemiluminescence assay platform.
Endogenous Huntingtin Protein Assay
Meso Scale Discovery (MSD) 96-well or 384-well plates were coated overnight at 4° C. with MW1 (expanded polyglutamine) or MAB2166 monoclonal antibody (for capture) at a concentration of 1 μg/mL in PBS (30 μL per well). Plates were then washed three times with 300 μL wash buffer (0.05% Tween-20 in PBS) and blocked (100 μL blocking buffer; 5% BSA in PBS) for 4-5 hours at room temperature with rotational shaking and then washed three times with wash buffer.
Samples (25 μL) were transferred to the antibody-coated MSD plate and incubated overnight at 4° C. After removal of the lysates, the plate was washed three times with wash buffer, and 25 μL of #5656S (Cell signaling; rabbit monoclonal) secondary antibody (diluted to 0.25 μg/mL in 0.05% Tween-20 in blocking buffer) was added to each well and incubated with shaking for 1 Hour at room temperature. Following incubation with the secondary antibody, the wells were rinsed with wash buffer after which 25 μL of goat anti-rabbit SULFO TAG secondary detection antibody (required aspect of the MSD system) (diluted to 0.25 μg/mL in 0.05% Tween-20 in blocking buffer) was added to each well and incubated with shaking for 1 hour at room temperature. After rinsing three times with wash buffer, 150 μL of read buffer T with surfactant (MSD) were added to each empty well, and the plate was imaged on a SI 6000 imager (MSD) according to manufacturers' instructions provided for 96- or 384-well plates.
For orientation: In an ELISA, binding on a coated surface is turned into a signal by an enzyme label.
The compound `Cn1cc2cc(-c3cc(F)c4nc(C5=CCNCC5)sc4c3)cc(C#N)c2n1` [Compound 102, 5-[4-fluoro-2-(1,2,3,6-tetrahydropyridin-4-yl)-1,3-benzothiazol-6-yl]-2-methyl-2H-indazole-7-carbonitrile] registered an IC50 of at most 100 nM.

Compound `Cn1cc2nc(-c3cc(F)c4nc(C5CCNCC5)sc4c3)ccc2n1` [Compound 79, 5-[4-fluoro-2-(piperidin-4-yl)-1,3-benzothiazol-6-yl]-2-methyl-2H-pyrazolo[4,3-b]pyridine] had an IC50 of at most 100 nM.

For the compound `Cc1cn2cc(-c3ncc4nc(N(C)C5CC(C)(C)NC(C)(C)C5)sc4n3)cc2c(C)n1` [Compound 265, 5-(1,3-dimethylpyrrolo[1,2-a]pyrazin-7-yl)-N-methyl-N-(2,2,6,6-tetramethylpiperidin-4-yl)[1,3]thiazolo[5,4-d]pyrimidin-2-amine], the IC50 was at most 100 nM. The same measure for `COc1cc(-c2cc(F)c3nc(C4CCNCC4)sc3c2)ccc1F` [Compound 191, 4-fluoro-6-(4-fluoro-3-methoxyphenyl)-2-(piperidin-4-yl)-1,3-benzothiazole]: 1000 to 3000 nM. The same measure for `CN(c1nc2cnc(-c3cc(C#N)c4nn(C)cc4c3)nc2s1)C1CC2CCC(C1)N2` (stereo not drawn) [Compound 208, 5-{2-[(3-exo)-8-azabicyclo[3.2.1]oct-3-yl(methyl)amino][1,3]thiazolo[5,4-d]pyrimidin-5-yl}-2-methyl-2H-indazole-7-carbonitrile]: at most 100 nM; for `CCN1CCC(Oc2nc3c(F)cc(-c4cc(C)c5nc(C)cn5n4)cc3s2)CC1` [Compound 321, 6-{2-[(1-ethylpiperidin-4-yl)oxy]-4-fluoro-1,3-benzothiazol-6-yl}-2,8-dimethylimidazo[1,2-b]pyridazine]: at most 100 nM; for `Cc1cn2nc(-c3cc(F)c4nc(N(C)[C@@H]5CCN[C@@H](C)C5)sc4c3)ccc2n1` [Compound 259, 4-fluoro-N-methyl-6-(2-methylimidazo[1,2-b]pyridazin-6-yl)-N-[(2S,4R)-2-methylpiperidin-4-yl]-1,3-benzothiazol-2-amine]: at most 100 nM. The same measure for `CN(c1nc2cnc(-c3ccc(-c4cn[nH]c4)cc3O)cc2s1)C1CC(C)(C)NC(C)(C)C1` [Compound 137, 2-{2-[methyl(2,2,6,6-tetramethylpiperidin-4-yl)amino][1,3]thiazolo[4,5-c]pyridin-6-yl}-5-(1H-pyrazol-4-yl)phenol]: 3000 to 9000 nM; for `Cn1cc2cc(-c3cc4sc(NC5CC6CCC(C5)N6)nc4cn3)cc(F)c2n1` (stereo not drawn) [Compound 211, N-[(3-exo)-8-azabicyclo[3.2.1]oct-3-yl]-6-(7-fluoro-2-methyl-2H-indazol-5-yl)[1,3]thiazolo[4,5-c]pyridin-2-amine]: at most 100 nM.

In turn, `CC1CC(c2nc3ccc(-c4ccc5nn(C)cc5c4)cc3s2)=CCN1` (stereo not drawn) [Compound 65, 6-(2-methyl-2H-indazol-5-yl)-2-(2-methyl-1,2,3,6-tetrahydropyridin-4-yl)-1,3-benzothiazole] returned an IC50 of 100 to 500 nM.

The compound `Cc1cn2nc(-c3cc(F)c4nc(C5CCNCC5)sc4c3)cc(OCc3ccccc3)c2n1` [Compound 187, 8-(benzyloxy)-6-[4-fluoro-2-(piperidin-4-yl)-1,3-benzothiazol-6-yl]-2-methylimidazo[1,2-b]pyridazine] registered an IC50 of at most 100 nM. With `CN1CCCC2(CCN2c2nc3nnc(-c4ccc(-c5cn[nH]c5)cc4O)cc3s2)C1` (stereo not drawn) [Compound 370, 2-[6-(6-methyl-1,6-diazaspiro[3.5]nonan-1-yl)[1,3]thiazolo[4,5-c]pyridazin-3-yl]-5-(1H-pyrazol-4-yl)phenol] the figure was at most 100 nM; with `CN(c1nc2ncc(-c3ccc(-c4cn[nH]c4)cc3O)nc2s1)C1CC(C)(C)NC(C)(C)C1` [Compound 130, 2-{2-[methyl(2,2,6,6-tetramethylpiperidin-4-yl)amino][1,3]thiazolo[4,5-b]pyrazin-6-yl}-5-(1H-pyrazol-4-yl)phenol], at most 100 nM. `CN(c1nc2ccc(-c3cc(F)c4nn(C)cc4c3)nc2s1)C1CC2(C)CCC(C)(C1)N2` [Compound 294, N-[(1R,3s,5S)-1,5-dimethyl-8-azabicyclo[3.2.1]octan-3-yl]-5-(7-fluoro-2-methyl-2H-indazol-5-yl)-N-methyl[1,3]thiazolo[5,4-b]pyridin-2-amine] displayed an IC50 of 100 to 500 nM. For the compound `CN1CCC(c2nc3ccc(-c4ccc5nn(C)cc5c4)cc3s2)CC1` [Compound 9, 6-(2-methyl-2H-indazol-5-yl)-2-(1-methylpiperidin-4-yl)-1,3-benzothiazole], the IC50 is 1000 to 3000 nM. The same measure for `COc1cc(-c2cc(F)c3nc(N(C)C4CCNCC4)sc3c2)nn2cc(C)nc12` [Compound 202, 4-fluoro-6-(8-methoxy-2-methylimidazo[1,2-b]pyridazin-6-yl)-N-methyl-N-(piperidin-4-yl)-1,3-benzothiazol-2-amine]: at most 100 nM. With `CCN(c1nc2cnc(-c3cc(F)c4nc(C)cn4c3)nc2s1)C1CC(C)(C)NC(C)(C)C1` [Compound 243, N-ethyl-5-(8-fluoro-2-methylimidazo[1,2-a]pyridin-6-yl)-N-(2,2,6,6-tetramethylpiperidin-4-yl)[1,3]thiazolo[5,4-d]pyrimidin-2-amine] the figure was 100 to 500 nM.

`CC1(C)C=C(c2cc3sc(-c4ccc(-c5cn[nH]c5)cc4O)nc3cn2)CC(C)(C)N1` [Compound 337, 5-(1H-pyrazol-4-yl)-2-[6-(2,2,6,6-tetramethyl-1,2,3,6-tetrahydropyridin-4-yl)[1,3]thiazolo[4,5-c]pyridin-2-yl]phenol] displayed an IC50 of 500 to 1000 nM. With `COc1cc(-c2cc(C)c3nn(C)cc3c2)cc2sc(C3=CCNCC3)nc12` [Compound 98, 6-(2,7-dimethyl-2H-indazol-5-yl)-4-methoxy-2-(1,2,3,6-tetrahydropyridin-4-yl)-1,3-benzothiazole] the figure was 100 to 500 nM; with `Cc1cc(-c2ccc3nc(N(C)C4CCN(C)C(C)C4)sc3c2)cc2cn(C)nc12` (stereo not drawn) [Compound 108, 6-(2,7-dimethyl-2H-indazol-5-yl)-N-(1,2-dimethylpiperidin-4-yl)-N-methyl-1,3-benzothiazol-2-amine], 500 to 1000 nM; with `Oc1cc(-c2cn[nH]c2)ccc1-c1cc2sc(N3C[C@H]4CCNC[C@H]43)nc2nn1` [Compound 386, 2-{6-[(1S,6R)-3,8-diazabicyclo[4.2.0]octan-8-yl][1,3]thiazolo[4,5-c]pyridazin-3-yl}-5-(1H-pyrazol-4-yl)phenol], at most 100 nM. `Cn1cc2cc(-c3cc(F)c4nc(C5CCNCC5)sc4c3)cc(C#N)c2n1` [Compound 104, 5-[4-fluoro-2-(piperidin-4-yl)-1,3-benzothiazol-6-yl]-2-methyl-2H-indazole-7-carbonitrile] registered an IC50 of at most 100 nM. The same measure for `CN(c1nc2nnc(-c3ccc(-c4cn[nH]c4)cc3O)cc2s1)C1CCN(C2CC2)CC1` [Compound 383, 2-{6-[(1-cyclopropylpiperidin-4-yl)(methyl)amino][1,3]thiazolo[4,5-c]pyridazin-3-yl}-5-(1H-pyrazol-4-yl)phenol]: at most 100 nM; for `Oc1cc(-c2cn[nH]c2)ccc1-c1cc2sc(N3C[C@@H]4CCNC[C@@H]43)nc2nn1` [Compound 389, 2-{6-[(1R,6S)-3,8-diazabicyclo[4.2.0]octan-8-yl][1,3]thiazolo[4,5-c]pyridazin-3-yl}-5-(1H-pyrazol-4-yl)phenol]: at most 100 nM; for `CCc1cc(-c2cc3sc(C4CCNCC4)nc3cn2)cc2cn(C)nc12` [Compound 75, 6-(7-ethyl-2-methyl-2H-indazol-5-yl)-2-(piperidin-4-yl)[1,3]thiazolo[4,5-c]pyridine]: 100 to 500 nM. With `Cc1cn2nc(-c3cc(F)c4nc(OC5CC(C)NC(C)C5)sc4c3)cc(C)c2n1` (stereo not drawn) [Compound 135, 6-{2-[(2,6-dimethylpiperidin-4-yl)oxy]-4-fluoro-1,3-benzothiazol-6-yl}-2,8-dimethylimidazo[1,2-b]pyridazine] the figure was at most 100 nM; with `Cc1cn2nc(-c3cc(F)c4nc(N5CC(C)NC(C)C5)sc4c3)cc(C)c2n1` (stereo not drawn) [Compound 132, 6-[2-(3,5-dimethylpiperazin-1-yl)-4-fluoro-1,3-benzothiazol-6-yl]-2,8-dimethylimidazo[1,2-b]pyridazine], at most 100 nM. The same measure for `CN(c1nc2nnc(-c3ccc(-c4cn[nH]c4)cc3O)cc2s1)C1CCNCC1` [Compound 282, 2-{6-[methyl(piperidin-4-yl)amino][1,3]thiazolo[4,5-c]pyridazin-3-yl}-5-(1H-pyrazol-4-yl)phenol]: at most 100 nM. `Oc1cc(-c2cn[nH]c2)ccc1-c1cc2sc(N3CC[C@H]4CCNC[C@H]43)nc2nn1` [Compound 362, 2-{6-[(3aR,7aS)-octahydro-1H-pyrrolo[2,3-c]pyridin-1-yl][1,3]thiazolo[4,5-c]pyridazin-3-yl}-5-(1H-pyrazol-4-yl)phenol] had an IC50 of at most 100 nM. The same measure for `Cc1cn2cc(-c3ccc4nc(C5CCNCC5)sc4c3)cc(C)c2n1` [Compound 114, 6-(2,8-dimethylimidazo[1,2-a]pyridin-6-yl)-2-(piperidin-4-yl)-1,3-benzothiazole]: at most 100 nM.

A word on the IC50: it is the concentration needed to halve the response being measured. High values mean lower potency, low ones higher potency.
